This note sets out measurements from patent US20260337212A1, “IP4-4,6 SUBSTITUTED DERIVATIVE COMPOUNDS FOR USE IN THE TREATMENT, INHIBITION OF PROGRESSION, AND PREVENTION OF ECTOPIC CALCIFICATION” (SANIFIT THERAPEUTICS, S.A., priority 2022, published 2026).

Where only a bound is given, the exact number is not on record here.

The subject of assay [1] is interstitial cells from aortic human valves (VIC). Nature of the assay: Calcification of interstitial cells from calcified human aortic valves (Alizarin Red). The format is cell-based. The conditions noted are these: 1, 3, 10, 30, 100 μM; 3 weeks osteodifferentiation media; FIG. 15. Here is the method: Calcification was measured by Alizarin Red staining and quantified spectrophotometrically as relative calcification. Values are shown as dot plots with mean. A one-way ANOVA for parametric distributions (IP6) with DMS post-test statistical analysis was performed. For not normally distributed results (Compound 1, Compound 3, and Compound 6), a nonparametric one-way ANOVA (Kruskal-Wallis test) with Dunn's post-test was applied, p<0.05 was considered statistically significant.
The dose-response efficacy of IP4-4,6 derivatives in the treatment of calcified aortic human valves was analyzed using an in vitro model (Zabirnyk A, et al., Vasc Pharmacol 2019; 122-123, 106583, doi:10.1016/j.vph.2019.106583). The model evaluated the effects of IP6, Compound 1, Compound 3, and Compound 6 on the calcification of interstitial cells from aortic human valves (VIC).
Human calcified aortic valve leaflets were obtained during aortic valve replacement and were harvested. After the removal of the valve endothelial cells, VIC were isolated. The leaflets were placed in 30 mL of basic growth medium (DMEM), supplemented with 10% fetal bovine serum (FBS) and 50 μg/mL gentamycin with the addition of 1 mg/mL collagenase II. The cells were incubated overnight at 37° C. with 5% CO2. Next day, the digested tissue was homogenized by pipetting with a serological pipet and centrifuged at 300 g for 5 min and the supernatant carefully removed by aspiration.
The pellet was washed in 10 mL of fresh DMEM and centrifuged as described previously. The supernatant was removed by aspiration, the cell pellet was resuspended in basic growth media and seeded in […]. VIC were cultured at 37° C. and 5% CO2 with growth media changed twice a week until they reached ~90% confluency. Cells were passaged at ratio of 1:2, propagated and frozen. […]
Alizarin Red staining was performed to assess calcification. […] To quantify calcium accumulation, Alizarin Red staining was extracted and measured spectrophotometrically. […]

The nature of assay [2]: In vitro inhibition of calcium phosphate crystallization in human plasma (spectrophotometric). The format is biochemical. The settings on record: 0-100 μM, 1.5 mM phosphate, 12.5 mM calcium, pH 7.4, 30 min, rt, read-out: Relative Potency (EC50, inhibition of calcium phosphate crystallization). Here is the method:
The in vitro efficacy of the IP4-4,6 substituted derivatives (e.g., Compounds 1 to 53) of the invention on the inhibition of calcium phosphate crystallization in human plasma samples was evaluated according to a spectrophotometric assay previously described in the art (Ferrer M, et al., Sci Rep 2017; 7:6858, doi:10.1038/s41598-017-07203-x).
A 96-well plate was employed. Plasma was spiked (1 volume of the IP4-4,6 substituted derivatives of the invention per 19 volumes of plasma) with increasing concentrations of the derivatives in the range of 0-100 μM. Plasma was then centrifuged at 10,000 g at rt and subsequently mixed with a mixture of 5 mM hydrogen phosphate and 41.67 mM calcium to attain final concentrations of 1.5 mM phosphate and 12.5 mM calcium, respectively. All reagent solutions were filtered, and pH adjusted to 7.4.
Crystallization of calcium phosphate was monitored spectrophotometrically for 30 min at rt by measuring the increments in absorbance at 550 nm using the Biotek Powerwave XS Microplate spectrophotometer (BioTek Instruments, Inc., Winooski, VT, US). The plate was incubated at rt in an orbital shaker and absorbance measured every 3 min.
Plasma crystallization was assessed based on slope measurement in the linear range between 6 and 24 min from plots of increase in absorbance versus logarithm of time. The efficacy of different myo-inositol phosphates derivatives in preventing in vitro formation of calcium phosphate crystals was assessed in human plasma samples using the slopes obtained between 6- and 24-min. Inhibition of crystallization was measured by comparing the slopes of the control sample (blank plasma) with those of samples containing the inhibitor as shown below: […]

Assay [3] can be described thus: Rat calcinosis cutis/calciphylaxis model (vitamin D3 and FeCl3): skin plaque calcification. The conditions noted are these: 60 mg/kg s.c. daily D1-D8; HC (vitamin D3 50,000 IU/kg), FeCl3 0.5 mg/kg. The class given is in vivo, Sprague Dawley rat. Here is the method:
The dose-response efficacy of IP4-4,6 derivatives in the prevention and treatment of calcinosis cutis and calciphylaxis (CUA) induced by vitamin D3 and FeCl3 in a rat model was used. The model evaluated the effects of Compound 27 and IP6 on the formation of calcified skin plaques in rats for a duration of 8 days. Animals were sensitized at low concentration (LC, 35,000 IU/kg) and high concentration (HC, 50,000 IU/kg) doses of vitamin D3. A FeCl3 solution (0.5 mg/kg) was used as challenger to induce the formation of skin plaques. All animals were weighed every day before treatment.
Eighty-six male Sprague Dawley (SD) rats (Envigo Corp., Huntingdon, GB) weighing approximately 250-300 g were used. The animals were fed with a standard LASQCdiet® Rod14-H diet (LASvendi, Soest, DE). The animals were divided in 8 groups, 6 to 12 animals per group, as follows:
The following solutions were prepared: (a) 17,500 IU/mL (LC) and 25,000 IU/mL (HC) vitamin D3 (cholecalciferol, Duphafral D3 1000; Zoetis Inc., Parsippany, NJ, US), (b) 0.3 mg/mL FeCl3 (FeCl3·6H2O, 99%, Scharlab S. L., Barcelona, E S), (c) 30 mg/mL IP6 (660 g/mol phytic acid, pH 6.5-7.7), and (d) 15, 30, and 50 mg/mL Compound 27 (754.45 g/mol free acid, pH 6.5-7.7). All solutions were prepared in a 0.9% (w/v) physiological saline NaCl medium. An application volume of 2 mL/kg was employed.
Group 1—Control (sham), 6 animals. Animals in group 1 were administered subcutaneously physiological saline (0.9% (w/v) NaCl solution daily from D1 to D3 in the interscapular space, and with one saline 0.9% injection at each of the two ventral sites in the thorax on D4. Animals in group 1 were not administered Vit D or FeCl3 solutions.
Group 2—Physiological saline solution low concentration (Vehicle LC): Vit D 35,000 IU/kg, 0.5 mg/kg FeCl3 solution, 10 animals. Vit D at dose 35,000 IU/kg was administered subcutaneously x 3 consecutive days (D1, D2, D3), and one 0.5 mg/kg FeCl3 injection at each of the two ventral sites in the thorax on D4. This group received a daily saline 0.9% s.c. treatment (D1 to D8).
Group 3—Compound 27 60 mg/kg LC: Vit D 35,000 IU/kg, 0.5 mg/kg FeCl3, 10 animals. Vit D at dose 35,000 IU/kg was administered subcutaneously x 3 consecutive days (D1, D2, D3), and one 0.5 mg/kg FeCl3 injection at each of the two ventral sites in the thorax on D4. This group received a daily Compound 27 s.c. treatment at 60 mg/kg dose (D1 to D8).
Group 4—Physiological saline solution high concentration (Vehicle HC): Vit D 50,000 IU/kg, 0.5 mg/kg FeCl3, 12 animals. Vit D at dose 50,000 IU/kg was administered subcutaneously x 3 consecutive days (D1, D2, D3), and one 0.5 mg/kg FeCl3 injection at each of the two ventral sites in the thorax on D4. This group received a daily saline 0.9% s.c. treatment (D1 to D8).
Group 5—IP6 60 mg/kg HC, Vit D 50,000 IU/kg, 0.5 mg/kg FeCl3, 12 animals. Vit D at dose 50,000 IU/kg was administered subcutaneously x 3 consecutive days (D1, D2, D3), and one 0.5 mg/kg FeCl3 injection at each of the two ventral sites in the thorax on D4. This group received a daily IP6 s.c. treatment at 60 mg/kg dose (D1 to D8).
Group 6—Compound 27 30 mg/kg HC, Vit D 50,000 IU/kg, 0.5 mg/kg FeCl3, 12 animals. Vit D at dose 50,000 IU/kg was administered subcutaneously x 3 consecutive days (D1, D2, D3), and one 0.5 mg/kg FeCl3 injection at each of the two ventral sites in the thorax on D4. This group received a daily Compound 27 s.c. treatment at 30 mg/kg dose (D1 to D8).
Group 7—Compound 27 60 mg/kg […], Vit D 50,000 IU/kg, 0.5 mg/kg FeCl3, 12 animals. Vit D at dose 50,000 IU/kg was administered subcutaneously x 3 consecutive days (D1, D2, D3), and one 0.5 mg/kg FeCl3 injection at each of the two ventral sites in the thorax on D4. This group received a daily Compound 27 s.c. treatment at 60 mg/kg dose (D1 to D8).
Group 8—Compound 27 100 mg/kg HC, Vit D 50,000 IU/kg, 0.5 mg/kg FeCl3, 12 animals. […]

Consider “4,6-O-di(tetradecyl)-myo-inositol-1,2,3,5-tetrakis(phosphate) octasodium salt [Compound 3]”, for which the “Inhibition of the calcification of VIC” value in assay [1] is listed as “effective in inhibiting the calcification of VIC in vitro in a dose-response manner”. For the same molecule, in assay [2], the EC50 is not above 5 µM.

Regarding “4,6-O-dipentyl-myo-inositol-1,2,3,5-tetrakis(phosphate) octasodium salt [Compound 1]”, in assay [1], the “Inhibition of the calcification of VIC” value was “effective in inhibiting the calcification of VIC in vitro in a dose-response manner”. In addition, in assay [2], the EC50 was not above 5 µM.

Take `O=P([O-])([O-])O[C@@H]1[C@@H](OCCCCCO)[C@H](OP(=O)([O-])[O-])[C@H](OP(=O)([O-])[O-])[C@H](OP(=O)([O-])[O-])[C@H]1OCCCCCO.[Na+].[Na+].[Na+].[Na+].[Na+].[Na+].[Na+].[Na+]` [Compound 6, 4,6-O-bis(5-hydroxypentyl)-myo-inositol-1,2,3,5-tetrakis(phosphate) octasodium salt]: the “Inhibition of the calcification of VIC” value in assay [1] was “effective in inhibiting the calcification of VIC in vitro in a dose-response manner”. Also, the EC50 in assay [2] is not above 5 µM.

For the molecule `O=P(O)(O)O[C@H]1[C@H](OP(=O)(O)O)[C@@H](OP(=O)(O)O)[C@H](OP(=O)(O)O)[C@@H](OP(=O)(O)O)[C@H]1OP(=O)(O)O` [IP6, phytic acid, reference compound], the “Skin plaque % inhibition of calcification” value in assay [3] was determined as 58.8 ± 14.4 %.

Usually EC50 stands for the midpoint of the concentration-response curve.
